From patent publication US20230270730A1, “COMPOSITION CONTAINING ARYLAMIDE DERIVATIVE” (Chugai Seiyaku Kabushiki Kaisha, priority 2020, published 2023) come the findings set out here.

The structures appear in SMILES notation.

Series [1] concerns A549 human lung cancer cells. Nature of the series: Cell proliferation-inhibiting activity, A549 (CellTiter-Glo). The series is classed as cell-based. The following applies: A549, 96 h. A general note: Cellular ATP, detected with luciferase, serves as a proxy for viable cell number.
Experimental: The test compound was serially diluted with DMSO and then diluted 25-fold with Ca^2+, Mg^2+-free phosphate-buffered saline, and was then dispensed into a 96-well plate at 5 μL per well. A cell suspension containing the below indicated concentration of A549, Calu-6 or NCI-H2122 human lung cancer cells (all obtained from ATCC) was prepared using the below indicated medium with the addition of 10% fetal bovine serum (Sigma). The cell suspension was dispensed into the test compound-added plate at 95 μL per well and cultured in a 5% carbon dioxide gas incubator at 37° C. After 4 days, 80 μL of CellTiter-Glo (registered trademark) (Promega Corp.) was added to each well and the bioluminescence was measured with a fluorescent plate reader.
The nature of series [2]: Human liver microsome stability. The series is classed as in vitro ADME. The following applies: pH 7.4; human liver microsomes, NADPH, 37° C. As for the experimental part: The compounds listed in Table 2 below were tested for metabolic stability in human liver microsomes as described below using a Biomek3000 (Beckman Coulter). There were dispensed 400 ILL of 1 mg/mL human liver microsomes (XENOTECH)/0.1 M potassium phosphate buffer (pH 7.4) into each well of a 96-well plate. A DMSO solution (4 μL) of 200 μM test compound was then added, and incubation was conducted until reaching 37° C. To this reaction mixture (200 IL) there was added a solution (200 μL) containing 2 mM NADPH (ORIENTAL YEAST)/0.1 M potassium phosphate buffer (pH 7.4) that had been incubated at 37° C. At 0 min, 5 min, 15 min or 30 min after addition, the reaction mixture (50 μL) was added to acetonitrile (100 μL) to stop the metabolic reaction. After the metabolic reaction was stopped, a 1 μM warfarin aqueous solution (50 μL) was added to each reaction mixture as an internal standard. […] The percent remaining relative to the amount of test compound at 0 min was calculated from the obtained peak area ratio of the test compound to internal standard. The elimination rate constant (ke) was calculated from the incubation time and percent remaining using the primary elimination rate equation, and the hepatic intrinsic clearance (CLint) was calculated using the formula shown below. […]
(Liver microsomes are a subcellular fraction often used to study metabolism.)

For series [3], the target named is T1, BRAF (Homo sapiens, UniProt P15056).
T1 construct: purchased Eurofins Genomics KK
In words: BRAF-inhibiting activity (time-resolved fluorescence-fluorescence resonance energy transfer assay). The class given is biochemical. The following applies: MEK1, ATP-containing buffer. The procedure: The BRAF-inhibiting activity of the compounds listed in Table 2 below was evaluated by the time-resolved fluorescence-fluorescence resonance energy transfer assay as described below.

T1 sequence (P15056 whole entry): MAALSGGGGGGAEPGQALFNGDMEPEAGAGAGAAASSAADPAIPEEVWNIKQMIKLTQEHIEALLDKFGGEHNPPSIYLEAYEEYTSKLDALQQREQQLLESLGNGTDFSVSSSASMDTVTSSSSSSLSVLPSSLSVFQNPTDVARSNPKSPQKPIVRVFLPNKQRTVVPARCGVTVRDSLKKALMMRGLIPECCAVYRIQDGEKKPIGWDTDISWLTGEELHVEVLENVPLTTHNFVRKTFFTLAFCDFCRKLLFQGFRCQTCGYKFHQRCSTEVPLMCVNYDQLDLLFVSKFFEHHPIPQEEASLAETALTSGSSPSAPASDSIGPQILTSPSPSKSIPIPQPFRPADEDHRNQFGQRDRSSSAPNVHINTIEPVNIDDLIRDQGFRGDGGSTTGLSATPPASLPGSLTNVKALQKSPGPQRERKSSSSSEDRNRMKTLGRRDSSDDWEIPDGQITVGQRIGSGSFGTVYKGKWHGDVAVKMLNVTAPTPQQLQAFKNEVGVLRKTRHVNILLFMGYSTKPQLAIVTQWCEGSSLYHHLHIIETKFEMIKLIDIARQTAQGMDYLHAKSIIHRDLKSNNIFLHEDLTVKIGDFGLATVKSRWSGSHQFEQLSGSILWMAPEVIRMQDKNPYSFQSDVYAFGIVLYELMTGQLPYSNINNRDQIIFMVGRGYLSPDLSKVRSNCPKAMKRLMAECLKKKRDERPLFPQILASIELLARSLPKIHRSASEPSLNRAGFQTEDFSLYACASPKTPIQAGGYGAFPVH
T1 sequence (Q02750 whole entry partner): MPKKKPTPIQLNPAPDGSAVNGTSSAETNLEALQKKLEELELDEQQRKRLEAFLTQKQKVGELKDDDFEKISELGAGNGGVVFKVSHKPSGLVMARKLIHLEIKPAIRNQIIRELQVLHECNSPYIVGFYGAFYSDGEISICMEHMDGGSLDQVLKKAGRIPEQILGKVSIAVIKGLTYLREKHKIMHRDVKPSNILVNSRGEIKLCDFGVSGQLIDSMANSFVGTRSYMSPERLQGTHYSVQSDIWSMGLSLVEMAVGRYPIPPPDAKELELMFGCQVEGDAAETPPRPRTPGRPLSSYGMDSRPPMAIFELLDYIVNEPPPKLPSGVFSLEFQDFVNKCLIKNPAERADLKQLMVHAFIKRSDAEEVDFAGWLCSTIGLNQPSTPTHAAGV

Broadly, the IC50 is the concentration needed to halve the response being measured. Low readings indicate greater potency in that assay, high ones weaker potency in that assay. Turning to `NC(=O)c1cc(Cc2ccnc(NS(=O)(=O)NCC3COC3)c2F)c(F)c(F)c1Nc1ccc(I)cc1F` [Sample A-21, 3,4-difluoro-2-(2-fluoro-4-iodoanilino)-5-[[3-fluoro-2-(oxetan-3-ylmethylsulfamoylamino)pyridin-4-yl]methyl]benzamide], in series [1], the IC50 was 3 nM.
A word on the microsomal CLint: it is the rate of metabolic loss divided by the concentration. Higher therefore signals rapid turnover. In the case of `NC(=O)c1cc(Cc2ccnc(NS(=O)(=O)NC3C4COCC43)c2F)c(F)c(F)c1Nc1ccc(I)cc1F` (centres unmarked) [Sample A-22, 3,4-Difluoro-2-(2-fluoro-4-iodoanilino)-5-[[3-fluoro-2-(3-oxabicyclo[3.1.0]hexan-6-ylsulfamoylamino)pyridin-4-yl]methyl]benzamide], the microsomal CLint at 0.99 µM in series [2] worked out at 47 µL/min/mg.
`NC(=O)c1cc(Cc2ccnc(NS(=O)(=O)NC3CCOCC3)c2F)c(F)c(F)c1Nc1ccc(I)cc1F` [Sample A-29, 3,4-Difluoro-2-(2-fluoro-4-iodoanilino)-5-[[3-fluoro-2-(oxan-4-ylsulfamoylamino)pyridin-4-yl]methyl]benzamide]: in series [3], half-maximal inhibition (IC50) required 1 nM.
The compound `CC1(NS(=O)(=O)Nc2nccc(Cc3cc(C(N)=O)c(Nc4ccc(I)cc4F)c(F)c3F)c2F)CCC1` [Sample A-35, 3,4-difluoro-2-(2-fluoro-4-iodoanilino)-5-[[3-fluoro-2-[(1-methylcyclobutyl)sulfamoylamino]pyridin-4-yl]methyl]benzamide] returned an IC50 in series [1] of 2 nM.
In turn, `CCNS(=O)(=O)Nc1nccc(Cc2cc(C(=O)NOCCO)c(Nc3ccc(I)cc3F)c(F)c2F)c1F` [Sample A-44, 5-[[2-(Ethylsulfamoylamino)-3-fluoropyridin-4-yl]methyl]-3,4-difluoro-2-(2-fluoro-4-iodoanilino)-N-(2-hydroxyethoxy)benzamide] gave an IC50 in series [3] of 9 nM.
